The subject of experiment [1] is thiolated DBC1 protein (deleted in breast cancer 1), NAD^+ binding domain linked to CdSe/CdS/CdZnS/ZnS quantum dot. The experiment can be described thus: NAD^+ detection with quantum dot sensor linked to thiolated DBC1 protein (fluorescence quenching). It counts as biochemical. Conditions: for reduction of fluorescence signal of the sensor: 1.5 μM of sensor, in microfluidics (droplets). On the procedure:
(4) Preparation of thiolated DBC1 protein (deleted in breast cancer 1). DBC1 protein was prepared by treated protein with 2-iminothiolane to introduce sulfhydryl residues onto a sulfydril:protein ratio of ˜20. Five mg of DBC1 dissolved in 1 mL of PBS (pH 7.4) was allowed to react with 2 mg of 2-iminothilane.HCl and kept at 4° C. for 2 h with vortex. The resulting solution was filtered through a size-exclusion centrifugal filter device (Micron YM-30, Millipore).
(5) Preparation of DBC1 protein coated QDs. The MPA capped QDs were incubated with thiolated DBC1 protein in HEPES buffer (pH 7.4) for 5 days at 4° C.
Another example for NAD^+ sensing was developed with a quantum dot fluorescence sensor through FRET effect (FIG. 13A). The highly fluorescent CdSe quantum dot core was coated with 3-mercaptopropionic acid and linked to a NAD^+ binding domain (thiolated DBC1 protein sensor). The protein sensor was reported to specifically bind NAD^+. When such binding occurs, the fluorescence of quantum dot was effectively quenched (FIG. 13B). Consequently, the fluorescence signal of the quantum dot sensor was negatively correlated to NAD+ concentration. This allowed accurate determination of NAD^+ based on the change of fluorescence signal.
The performance of the quantum dot NAD^+ sensor was explored. The quantitative NAD^+ quenching was further examined and validated with an excitation at 538 nm and the fluorescence emission is detected at 595 nm. As concentration of NAD^+ increased, the fluorescence of the sensor was quenched at a very low NAD^+ concentration. The sensor enabled the detection of NAD^+ with a detection limit of 30 μM with a sensor concentration of 1.5 μM with a fixed incubation time of 20 minutes. When the NAD^+ concentration reached 250 μM and above, more than 90% fluorescence signal is quenched. […]
For the NAD^+ detection in microfluidics, the fluorescence of 1.5 μM of sensor was examined with different concentration of NAD^+. The fluorescence signal of the sensor reduced ˜25% when incubated with 200 μM NAD^+, and reduced 45% in the presence of 250 μM NAD^+ (FIG. 14A). […]

In experiment [2] the test system is fluorescent protein-based NAD^+ biosensor (fluorescent core domain and bipartite NAD^+ binding domain). Nature of the experiment: NAD^+ detection with fluorescent protein biosensor in microdroplets (fluorescence quenching by NAD^+ binding). It counts as biochemical. The conditions noted are these: 1 mM of NAD^+, excitation at 488 nm, emission at 520 nm. The source says: In some embodiments, the detection reagent comprises a biosensor, such as a protein biosensor, as one non-limiting example of a biosensor. The biosensor may be configured to react with the cofactor (or a redox couple of the cofactor) to generate (or quench) a luminescent signal. The generation (or quenching) of the luminescent signal may be used to detect, screen, and/or isolate droplets containing the target enzyme. In one example, the protein biosensor comprises a fluorescent core domain and a bipartite NAD+ and/or NADP+ binding domain. The fluorescent core domain has an excitation at 488 nm and an emission at 520 nm. In the presence of NAD+ and/or NADP+, the fluorescence from the core domain is quenched by binding of the NAD+ and/or NADP+ to the bipartite binding domain.
A fluorescent protein-based NAD^+ biosensor was developed for quantitative detection of NAD^+. […] In this setup, the fluorescence from the core domain was quenched by NAD^+ binding corresponding to the concentration of the bound NAD^+ (FIG. 12A). The biosensor fluorescence intensity and NAD^+ concentration were negatively correlated in the range of 1 to 1000 μM of NAD^+. […] A nearly-linear correlation between the biosensor fluorescence intensity and NAD^+ concentration was shown at range of 50 μM to 1000 μM of NAD^+.

Structures are written as SMILES.

Take `NC(=O)c1ccc[n+]([C@@H]2O[C@H](COP(=O)([O-])OP(=O)(O)OC[C@H]3O[C@@H](n4cnc5c(N)ncnc54)[C@H](O)[C@@H]3O)[C@@H](O)[C@H]2O)c1` [NAD^+, nicotinamide adenine dinucleotide]: the “reduction of fluorescence signal of the sensor” value in experiment [1] (200 μM NAD^+) is recorded as ~25%; in experiment [1] (250 μM NAD^+), 45%. For the same compound, in experiment [1] (NAD^+ 250 μM and above, sensor 1.5 μM, incubation 20 minutes, excitation at 538 nm, emission at 595 nm), the fluorescence signal quenched entry is “more than 90%”. The “lower fluorescence signal (quenching by NAD^+)” value in experiment [2] worked out at 21%.

These data come from patent US20210318315A1, “ULTRA-HIGH-THROUGHPUT MICROFLUIDIC ENZYME SCREENING PLATFORM FOR ENZYME DEVELOPMENT” (National University of Singapore, priority 2020, published 2021).
